Laboratory results as given in PubChem BioAssay (NCI).
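Five concentrations, 48 hours, 96-well plates. Here, GI50 denotes the concentration required for 50% inhibition of growth. Definition used: TGI = concentration required for complete inhibition of growth.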

Legend:
Test in all cases: NCI anticancer screen, dose series, 48 h
MDA-MB-435 = system: MDA-MB-435
MDA-MB-231 breast = system: MDA-MB-231 breast
MDA-N = system: MDA-N
DLD-1 colon = system: DLD-1 colon
DMS 114 small cell lung = system: DMS 114 small cell lung
M19-MEL melanoma = system: M19-MEL melanoma
XF 498 CNS = system: XF 498 CNS
KM20L2 colon = system: KM20L2 colon
DMS 273 small cell lung = system: DMS 273 small cell lung

SMILES | TGI (MDA-MB-435) [µM] | TGI (MDA-MB-231 breast) [µM] | TGI (MDA-N) [µM] | other results
CCN(CCO)C(=O)C1(c2ccccc2)CCCCC1 | > 10 | > 10 |  | 
COc1ccc(CC2CCc3nc(N)nc(N)c3C2)cc1OC (centres undefined) | > 100 | > 75.2 | > 44 | 
CCCCC(=O)c1ccc2ccccc2c1O | > 100 | > 100 |  | 
CC(CCC(=O)O)(c1ccc(O)cc1)c1ccc(O)cc1 | > 100 | > 100 | > 100 | 
CCOC(=O)NC(=O)c1cn(CCNCCO)c(=O)[nH]c1=O |  |  |  | TGI (DLD-1 colon): > 100 µM; TGI (DMS 114 small cell lung): > 100 µM; TGI (M19-MEL melanoma): > 100 µM; TGI (XF 498 CNS): > 100 µM
CN1CCN(c2ccc3[nH]c(-c4cc(O)c5c(nc(CO)n5C)c4O)nc3n2)CC1 | 48.3 | 63.1 | > 100 | 
O=C(N/N=C/C=C/c1ccccc1)[C@H](O)[C@@H](O)C(=O)N/N=C/C=C/c1ccccc1 |  |  |  | TGI (KM20L2 colon): > 100 µM; TGI (DLD-1 colon): > 100 µM; TGI (DMS 114 small cell lung): > 100 µM; TGI (M19-MEL melanoma): > 100 µM; TGI (DMS 273 small cell lung): > 100 µM
[Cl-].[Rh+3].c1cnc2c(c1)ccc1cccnc12.c1cnc2c(c1)ccc1cccnc12.c1cnc2c(c1)ccc1cccnc12 |  |  |  | GI50 (KM20L2 colon): > 100 µM; TGI (KM20L2 colon): > 100 µM
